In patent US8153773B2, “Synthesis and use of anti-reverse phosphorothioate analogs of the messenger RNA cap” (Board of Supervisors of Louisiana State University and …, priority 2007, dated 2012):
Entries after “also recorded” stand apart in the source; their conditions may differ.

Molecular target: hDcp2 (Homo sapiens, UniProt Q8IU60)
Test: In vitro RNA decapping assay with recombinant hDcp2
Assay type: biochemical
Details: for hydrolysis of capped oligonucleotide by hDcp2: capped 32P-labeled short RNA, recombinant hDcp2, anion exchange HPLC (FIG. 6); for Dcp2 susceptibility: radioactivity in pGp* as a percentage of total cap radioactivity, capped oligonucleotides digested with hDcp2
Experimental: Dcp2 activity was measured with capped 48-nt oligonucleotides as substrates, a truncated form of luciferase mRNA (48 nucleotides). GST-hDcp2 was expressed in Escherichia coli and purified as described by Z. Wang et al., “The hDcp2 protein is a mammalian mRNA decapping enzyme,” Proc. Natl. Acad. Sci. U.S.A., vol. 99, pp. 12663-12668 (2002). Capped oligonucleotides were first subjected to digestion with GST-hDcp2 at 37° C. for 2 h in decapping buffer (10 mM Tris-HCl, pH 7.5, 100 mM potassium acetate, 2 mM magnesium acetate, 0.5 mM MnCl2, 2 mM dithiothreitol, and 0.1 mM spermine). See C. Piccirillo et al., “Functional characterization of the mammalian mRNA decapping enzyme hDcp2,” RNA, vol. 9, pp. 1138-1147 (2003). The reaction mixture was then extracted once with an equal volume of phenol and twice with chloroform, and RNA was precipitated with ethanol. Products of the decapping reaction were further digested with a cocktail of ribonucleases (RiboShredder; Epicentre) at 37° C. for 1 h. The products were resolved by anion-exchange HPLC on a 4.6×250-mm Partisil 10SAX/25 column (Whatman). The gradient consisted of water for 1 min, a linear gradient to 112 mM KH2PO4, pH 4.5, for 20 min, a linear gradient of 112-450 mM KH2PO4 for 15 min, a linear gradient of 450 mM to 1.5 M KH2PO4 for 15 min, and isocratic elution at 1.5 M of KH2PO4 for 9 min, all at a flow rate 1 ml/min.
We tested oligonucleotides capped with either of S-ARCAs for hydrolysis by recombinant hDcp2 to test whether mRNA capped with the various diastereomers of m2^7,2′-OGpppsG and m2^7,2′-OGppspG would differ in their sensitivity to cleavage by Dcp1/Dcp2. See generally Z. Wang et al., “The hDcp2 protein is a mammalian mRNA decapping enzyme,” Proc. Natl. Acad. Sci. U.S.A., vol. 99, pp. 12663-12668 (2002), and Z. Wang et al., “An mRNA Stability Complex Functions with Poly(A)-Binding Protein To Stabilize mRNA In Vitro”, Mol. Cell. Biol., vol. 19, pp. 4552-4560 (1999). Cap analogs used were initially unlabeled, so to follow the products of the digestion reaction we synthesized capped oligonucleotides in the presence of [α-^32P]GTP and a DNA template in which G was the first ribonucleotide specified after the promoter. The oligonucleotides capped with either of the S-ARCAs were subjected to Dcp2 digestion in vitro, after which the products were further digested with a cocktail of ribonucleases (RiboShredder from Epicenter). Any nucleotide on the 5′ side of a G residue acquired a ^32P-labeled 3′-phosphate group after ribonuclease digestion by nearest-neighbor transfer. Anion exchange chromatography was then used to resolve the labeled 3′-nucleoside monophosphates (3′-NMP*), at internal positions in the RNA, from labeled 5′-terminal products (FIG. 6). The latter comprise p3 Gp* derived from uncapped transcripts and m2^7,2′-OGp3 Gp* (when m2^7,2′-OGp3G was used), or pGp* resulting from capped RNA resistant or nonresistant to enzymatic cleavage, respectively. All cap analogs used were ARCAs, which ensured that they were incorporated into RNA exclusively in the correct orientation. This further guaranteed that only one 5′-terminal product (m2^7,2′-OGp3 Gp*) was observed upon ribonuclease treatment. Uncapped RNA is not a substrate for Dcp2, which explains why p3 Gp* product was observed after Dcp2 digestion.
See E. Grudzien et al., “Differential inhibition of mRNA degradation pathways by novel cap analogs,” J. Biol. Chem., vol. 281, pp. 1857-1867 (2006).

Row | Compound | hydrolysis of capped oligonucleotide by hDcp2 | Dcp2 susceptibility [%]
1 | CO[C@@H]1[C@H](O)[C@@H](COP(=O)(O)OP(=O)([O-])OP(=O)(O)OC[C@H]2O[C@@H](n3cnc4c(=O)[nH]c(N)nc43)[C@H](O)[C@@H]2O)O[C@H]1n1c[n+](C)c2c(O)nc(N)nc21 [m2^7,2′-OGpppG, reference compound] | completely digested | 100
2 | m2^7,2′-OGpppsG (D1) [Compound 4a] | – | 96
3 | m2^7,2′-OGpppsG (D2) [Compound 4b] | – | 98
4 | m2^7,2′-OGppspG (D1) [Compound 5a] | much more susceptible to Dcp2 than its D2 counterpart | 71
5 | m2^7,2′-OGppspG (D2) [Compound 5b] | stabilized RNA against hDcp2 hydrolysis; also recorded: resistant to hDcp2 hydrolysis | 6
6 | m2^7,2′-OGpsppG (D1) [Compound 6a] | – | 84
7 | m2^7,2′-OGpsppG (D2) [Compound 6b] | – | 91
